Entries after “also recorded” stand apart in the source; their conditions may differ.
Legend:
WT and Myo1a KO mice [1] = assay: Spared nerve injury (SNI) neuropathic pain model, mechanical thresholds (Von Frey, up-down); format: in vivo; settings: for reversal of SNI-induced mechanical hypersensitivity: both genotypes (WT and Myo1a KO), i.t 10 nmol SNC80, 0.2 nmol DAMGO, 0.1 μg baclofen, 2 μg TAFA4, 40 μg taurine, i.p 3 mg/kg pregabalin
Experimental: (A-D) Mechanical responses of WT and KO mice following SNI surgery and i.t administration at indicated time-points of 10 nmol of SNC80, 0.2 nmol of DAMGO (A), 0.1 μg of baclofen, 2 μg of TAFA4 (n=6 mice per genotype) (B), 40 μg of taurine, i.p administration of 3 mg/kg of pregabalin (n=8 mice per genotype) (C) and i.t administration of 0.15 μg of muscimol (n=8 mice per genotype) (D).
(§1) SNC80 (Tocris Bioscience) was dissolved in a 100 mM HCl solution, DAMGO (Sigma Aldrich) was dissolved in saline (0.9% NaCl), Baclofen (Sigma Aldrich) was dissolved in H2O (pH7.6), recombinant human TAFA4 (R&D Systems) was dissolved in saline, Diazepam (DZP, Roche) was dissolved in 10% dimethyl sulfoxide (DMSO)/90% saline, Muscimol (Tocris Bioscience), Taurine (Sigma Aldrich), Bicuculline (Sigma Aldrich) and Pregabalin (Sigma Aldrich) were dissolved in Phosphate Buffer (PB, 50 mM, pH 7.4).
(§2) Except for pregabalin, all drugs were administrated via intratechal (i.t) injection. Pregabalin was injected intra-peritoneally (i.p).
(§3) All behavioral analyses were conducted on 8-12 weeks old Myo1a KO and WT males. All experiments were carried at room temperature (˜22° C.). Animals were acclimated for one hour to their testing environment prior to all experiments. Experimenters were blind to the genotype of the mice during testing. All error bars represent SEM. All statistical analysis was carried using Two Way Repeated Measures ANOVA followed by Bonferroni's post-hoc test. Openfield, Rotarod, Hot plate and Formalin tests were carried as described in Gaillard et al., 2014 (Gaillard et al., 2014).
(§4) Mechanical thresholds of the plantar surface were determined using Von Frey's filaments with the up-down method (Chaplan et al., 1994), previously as described (Gaillard et al., 2014) prior to and at several time-points after inflammation, neuropathy and paw-incision surgery.
Spared nerve injury surgery was performed as described (Shields et al., 2003). Briefly, mice were anesthetized with a mix of ketamine/xylazine and an incision was made through the skin and thigh muscle at the level of the trifurcation of the sciatic nerve. The common sural and peroneal nerves were ligated using a 6.0 silk filament (Ethicon, Piscataway, N.J., USA) and transected, while leaving the tibial nerve intact. After surgery, the animals were allowed to recover in a warming chamber, and then they were returned to their home cages. Mechanical thresholds were determined at days 7, 9 and 14 post-surgery, before and after drug administration.

WT and Myo1a KO mice [2] = assay: Zymosan-A induced inflammatory pain model, mechanical thresholds (Von Frey, up-down); format: in vivo; settings: for reversal of zymosan-induced mechanical hypersensitivity: i.t 0.15 μg muscimol, 0.09 mg/kg DZP
Experimental: (E-G) Mechanical responses of WT and KO mice following zymosan-induced inflammation (n=9 mice per genotype) (E) and i.t administration at indicated time-points of 0.15 μg of muscimol, 10 nmol of SNC80 (n=9 mice per genotype) (F) and 0.09 mg/kg of DZP (G) (n=7 mice per genotype). Data are presented as mean±SEM for each group (*p<0.05; **p<0.01; ***p<0.001; ns: non-significant).
as §1, §2, §3, §4
20 μl of a solution containing 1% carrageenan in H2O (weight/vol, Sigma) or 20 μl of a solution containing 0.06 mg Zymosan-A in 0.9% NaCl (weight/vol, Sigma), were injected subcutaneously into the plantar side of the left hindpaw, using a 30 G needled syringe.
For carrageenan-induced inflammation, mechanical thresholds were determined prior to inflammation and at several time-points (see legend) starting from 1 hour and up to 60 days after inflammation. For zymosan inflammation, mechanical thresholds were measured prior to injection, at day 1 and at several time-points (see legend) up day 60. In addition, mechanical thresholds in the zymosan model were measured before inflammation, at day 1 and day 2, before and after drug administration.

laminae II neurons = assay: Whole-cell patch-clamp recording of spontaneous EPSC in spinal cord slices; format: cell-based, mice
Experimental: (C-F) Whole cell recordings of spontaneous EPSC in laminae II interneurons after Musc application in naïve (C-D) and in zymosan-inflamed WT and KO mice (E-F).
Left panels: representative traces of EPSC obtained under ACSF (black traces), following superfusion of 5 μM Musc (blue traces) and during wash (brown traces).
Middle panels: Cumulative distribution of EPSC intervals (in seconds) for the experiments shown in the left panels. Note the shift of the Musc/blue curves towards the left (C, D, E middle panels), indicating a reversible increase in EPSC frequency.
Right panels: Normalized EPSC frequency (mean±SEM) under ACSF, following superfusion of 5 μM Musc and during wash. Note the absence of effect of Musc in slices from zymosan inflamed mice. The number of recorded cells is indicated in the right panels (*p<0.05; **p<0.01; ns: non-significant). (See also FIG. 8).
Transverse spinal cord slices with attached dorsal roots from juvenile (P24 to P45) Myo1a KO and WT mice were prepared for whole-cell recording. Briefly, the animals were anesthetized using Pentobarbital (200 mg/kg), perfused with ice cold oxygenated low calcium artificial cerebrospinal fluid (ACSF; in mM: NaCl 101; KCl 3.8; MgCl2 18.7, MgSO4 1.3; KH2PO4 1.2; HEPES 10; CaCl2 1; Glucose 1), and then beheaded. The vertebral column and surrounding muscles were quickly removed and immersed in ice cold oxygenated ACSF. Following laminectomy, the spinal cord was gently removed and its lumbar part was placed into a small 3% agarose block. Spinal slices (300 μm thick) were cut using a Leica VTS1000 vibratome, and transferred in warm (31° C.) ACSF (in mM: NaCl 130.5; KCl 2.4; CaCl2 2.4; NaHCO3 19.5; MgSO4 1.3; KH2PO4 1.2; HEPES 1.25; glucose 10; pH 7.4) equilibrated with 95%02-5% CO2 for at least one hour before starting patch clamp recordings. Spinal slices were placed in a recoding chamber bathed with warmed (31° C.) ACSF Electrophysiological measurements were performed under the control of an Olympus BX51 microscope using a multiclamp 2B (Molecular devices). Patch pipettes ([…]) were filled with C-based pipette solution (in mM: CsMethaneSulfonate 120; CsCl 20; CaCl2 0.1; MgCl2 1.3; EGTA 1; HEPES 10; GTP 0.1; cAMP 0.2; Leupeptin 0.1; Na2ATP 3; D-Manitol 77; pH 7.3). A glass suction electrode connected to a Master 8 (A.M.P. Instrument Ltd) stimulator was used to stimulate dorsal roots. Typically, a pair of high duration (500 μs) high intensity stimulations (350 μA) was used to recruit most primary afferent fibers in the recorded slice. All drugs were purchased from Sigma. Statistical comparison of EPSC frequencies was assessed for each cell using Kolmogorov-Smirnov test.

C[C@@H](NC(=O)[C@@H](N)Cc1ccc(O)cc1)C(=O)NCC(=O)N(C)[C@@H](Cc1ccccc1)C(=O)NCCO [DAMGO]
reversal of SNI-induced mechanical hypersensitivity (WT and Myo1a KO mice [1]): significantly reversed

C=CCN1C[C@H](C)N([C@H](c2ccc(C(=O)N(CC)CC)cc2)c2cccc(OC)c2)C[C@H]1C [SNC80]
reversal of SNI-induced mechanical hypersensitivity (WT and Myo1a KO mice [1]): significantly reversed | reversal of zymosan-induced mechanical pain (WT and Myo1a KO mice [2]; both genotypes, i.t 10 nmol SNC80): strongly reversed

NCC(CC(=O)O)c1ccc(Cl)cc1 (stereo not shown) [baclofen]
reversal of injury-induced mechanical hypersensitivity (conclusions summary) (WT and Myo1a KO mice [1]; Myo1a KO mice): transiently reversed | reversal of SNI-induced mechanical hypersensitivity (WT and Myo1a KO mice [1]): significantly reversed

CN1C(=O)CN=C(c2ccccc2)c2cc(Cl)ccc21 [diazepam]
reversal of zymosan-induced mechanical hypersensitivity (WT and Myo1a KO mice [2]; Myo1a KO mice, 0.09 mg/kg): had no effect and not | reversal of zymosan-induced mechanical hypersensitivity (WT and Myo1a KO mice [2]; Myo1a KO mice, listed as DZP, 0.09 mg/kg): totally insensitive | reversal of zymosan-induced mechanical hypersensitivity (WT and Myo1a KO mice [2]; WT mice): strongly reversed

NCc1cc(=O)[nH]o1 [muscimol]
reversal of injury-induced mechanical hypersensitivity (conclusions summary) (WT and Myo1a KO mice [1]; Myo1a KO mice): not | reversal of SNI-induced mechanical pain (WT and Myo1a KO mice [1]; Myo1a KO mice, i.t 0.15 μg muscimol): completely failed to reverse; also recorded: totally insensitive | reversal of zymosan-induced mechanical hypersensitivity (WT and Myo1a KO mice [2]; Myo1a KO mice): had no effect | reversal of zymosan-induced mechanical hypersensitivity (WT and Myo1a KO mice [2]; WT mice): strongly reversed | sEPSC frequency (laminae II neurons; naïve WT mice, bath application of 5 μM muscimol): significant increase | increase in sEPSC frequency (laminae II neurons; naïve slices from Myo1a KO mice, 5 μM muscimol): 544% | sEPSC frequency, effect relative to naïve WT (laminae II neurons; slices from WT mice inflamed with zymosan, 5 μM muscimol): almost doubled | sEPSC frequency (laminae II neurons; slices from zymosan inflamed Myo1a KO mice, 5 μM muscimol): had no effect

CC(C)C[C@H](CN)CC(=O)O [pregabalin]
reversal of injury-induced mechanical hypersensitivity (conclusions summary) (WT and Myo1a KO mice [1]; Myo1a KO mice): transiently reversed | reversal of SNI-induced mechanical hypersensitivity (WT and Myo1a KO mice [1]): significantly reversed

NCCS(=O)(=O)O [taurine]
reversal of injury-induced mechanical hypersensitivity (conclusions summary) (WT and Myo1a KO mice [1]; Myo1a KO mice): transiently reversed | reversal of SNI-induced mechanical hypersensitivity (WT and Myo1a KO mice [1]): significantly reversed

TAFA4: recombinant human TAFA4 (R&D Systems), a chemokine-like protein
reversal of injury-induced mechanical hypersensitivity (conclusions summary) (WT and Myo1a KO mice [1]; Myo1a KO mice): transiently reversed | reversal of SNI-induced mechanical hypersensitivity (WT and Myo1a KO mice [1]): significantly reversed

— patent US11180791B2, “MYO1A for predicting conversion of acute pain into chronic pain and use of MYO1A for therapy of pain” (UNIVERSITE D'AIX-MARSEILLE, priority 2016, dated 2021)
